Key:
[1] = in vivo; cited from earlier work
PDGF-BB-stimulated VSMC = assay: PDGF-BB-induced VSMC proliferation assay (CellTiter-Glo); type: cell-based, Human; details: 1 μM RVX equivalent
Experimental: Cell Culture. Human aortic VSMC and culture media (SmBm-2 basal medium for experimental purposes, and SmGm-2 complete medium for expansion) were purchased from Lonza (Walkersville, MD). Cells between passages 5 and 7 were maintained at 37° C. with 5% CO2 and used for all experiments. As established in previous studies, Accutase (ThermoFisher Scientific, Waltham, MA) instead of Trypsin was used for cell detachment to ensure fast cell adhesion and optimal cell status.
Cell Viability Assay of the Nanoclusters. The cytotoxicity and anti-proliferation of the nanoclusters on VSMC was evaluated by a CellTiter-Glo Luminescent Cell Viability kit according to manufacturer's instructions. VSMC were cultured in 96-well plates ([…] and 8×10^4 cells/well for experiments of proliferation and cytotoxicity, respectively) and grown for overnight. For cytotoxicity study, fresh basal medium (supplemented with 0.5% fetal bovine serum) containing NC with different concentrations were added into the plates. For proliferation study, VSMC were treated with 20 nM PDGF-BB to stimulate ROS and proliferation. […] Following 10 min incubation at room temperature, the 96-well plates were analyzed in a FlexStation 3 Benchtop Multi-Mode Microplate Reader (Molecular Devices, San Jose, California) (250-ms integration).

[2] = test system: balloon-injured carotid arteries; assay: Morphometric analysis of IH and restenosis in rat carotid artery balloon angioplasty model; details: in vivo
Experimental: Rat Carotid Artery Balloon Angioplasty Model. All animal experiments conform to the protocols approved by the Animal Care and Use Committee (ACUC) of the University of Virginia. All adult male Sprague-Dawley rats (Charles River, weighing 300-350 g) were maintained in a temperature and humidity-controlled SPF level animal facility under a 12 h light-dark cycle. Food and water were available ad libitum. Animals were randomly assigned to each treatment group. The carotid artery balloon injury model was operated as previously described. In brief, after anesthesia with isoflurane (5% for inducing and 2% for maintaining), a mid-line incision in the neck was made, and the carotid arteries and carotid bifurcation were exposed by blunt dissection. The proximal of left carotid artery, inner carotid artery, and external carotid artery were then temporarily ligated with 5-0 nylon suture to avoid excessive blood loss during the surgery. A 1 mm arteriotomy was created on the distal segment of the external carotid arteries. […] Area inside external elastic lamina (EEL area), area inside internal elastic lamina (IEL area), lumen area, intima area (=IEL area—lumen area), and media area (=EEL area—IEL area) were calculated using Image J. Intimal hyperplasia was defined as the ratio of intima area versus media area (Intima-to-media ratio, I/M ratio).

Structure (SMILES): COc1cc(OC)c2c(=O)[nH]c(-c3cc(C)c(OCCO)c(C)c3)nc2c1 [RVX]
- half-life [1]: 1.5 h
- effect on VSMC proliferation (PDGF-BB-stimulated VSMC): failed to exert any notable effect
- intimal hyperplasia, intima-to-media (I/M) ratio [2]: neither free RVX solution nor that delivered through conventional PLGA NP led to any significant changes

Reference: patent US12582613B2, “Biomimetic, reactive oxygen species-detonable nanoclusters for antirestenotic therapy” (University of Virginia Patent Foundation, priority 2021, dated 2026)
